Laboratory results as given in patent US20020157138A1, “Transformation and regeneration of sunflower cotyledons” (priority 2001, published 2002).

Columns and labels:
sunflower cotyledons = assay: Assessment of selection agents (GUS assay of transformed cotyledons and shoots); assay type: cell-based, Helianthus annuus L.; conditions: glyphosate 0.05->0.1->0.05 mM, paromomycin 25->50->25 mg/L, kanamycin 50 mg/L; for GUS Positive/Total cotyledons assayed: destructive GUS assays at different stages
Procedure: After the post-transformation delay, the transformed cotyledons were transferred through a series of selection cultures containing low-high-low concentrations of selective agent. The cotyledons were first placed in Selection media (see Table 1) containing 0.05 mM glyphosate for about 10 days. Plates were incubated at 23° C., low light, and 18/6 hour photoperiod. The cotyledons were then transferred to a second selection culture containing Selection media +0.1 mM glyphosate for about 2 additional weeks. Finally, the cotyledons were placed in a third selection culture containing Selection media +0.05 mM glyphosate for about 7 to 14 days. In addition to glyphosate, several other selection agents were tested (Table 4).

HA300B (Control) = assay: Glyphosate spray in greenhouse, non-transgenic control; assay type: in vivo, sunflower; conditions: for Tolerance to glyphosate spray: greenhouse, about v6 to v10 leaf stage
Procedure: (§1) Transgenic R1 sunflower plants (from strain HA300B), transformed with pWRG4750, were transformed and regenerated as described in Examples 5-9 and tested in greenhouse. About 5000 R2 seeds of two independent transformants, SFB193 and SFB216, were planted. […] […] The sunflower plants were assessed for resistance to glyphosate.
(§2) In addition, the glyphosate-treated transgenic plants were scored for normal head development.

SFB193 = assay: Glyphosate spray in greenhouse, transgenic sunflower; assay type: in vivo
Procedure: as §1, §2

SFB216 = assay: as above; assay type: in vivo
Procedure: Transgenic R1 sunflower plants (from strain HA300B), transformed with pWRG4750, were transformed and regenerated as described in Examples 5-9 and tested in greenhouse. About 5000 R2 seeds of two independent transformants, SFB193 and SFB216, were planted. Some plants were sprayed with Glyphosate at V-4 and V-8 leaf stages at 0 and 32 oz/acre level. […] The sunflower plants were assessed for resistance to glyphosate.
as §2

SFB193 and SFB216 = assay: Glyphosate spray of plants from R2 seeds at V4 and V8 stages; assay type: in vivo, sunflower; conditions: 32 and 64 oz/acre; V4 and V8 stages of plant development
Procedure: Transgenic R1 sunflower plants (from strain HA300B), transformed with pWRG4750, were transformed and regenerated as described in Examples 5-9 and tested in greenhouse. About 5000 R2 seeds of two independent transformants, SFB193 and SFB216, were planted. Some plants were sprayed with Glyphosate at V-4 and V-8 leaf stages at 0 and 32 oz/acre level. For the other plants, glyphosate treatment rates, at V4 stage were 0-, 32-, or 64 oz./acre. The sunflower plants were assessed for resistance to glyphosate.

| SMILES | GUS Positive/Total cotyledons assayed (sunflower cotyledons) | GUS Positive Shoots (sunflower cotyledons) | Normal Sunflower Heads After Treatment With Glyphosate (HA300B (Control); 32 oz./acre) | Tolerance to glyphosate spray (HA300B (Control); 32 oz./acre) | Normal Sunflower Heads After Treatment With Glyphosate (HA300B (Control); 64 oz./acre) | Tolerance to glyphosate spray (HA300B (Control); 64 oz./acre) | Normal Sunflower Heads After Treatment With Glyphosate (HA300B (Control); 96 oz./acre) | Normal Sunflower Heads After Treatment With Glyphosate (HA300B (Control); 128 oz./acre) | Normal Sunflower Heads After Treatment With Glyphosate (SFB193; 32 oz./acre) | Normal Sunflower Heads After Treatment With Glyphosate (SFB193; 64 oz./acre) | Normal Sunflower Heads After Treatment With Glyphosate (SFB193; 96 oz./acre) | Normal Sunflower Heads After Treatment With Glyphosate (SFB193; 128 oz./acre) | Normal Sunflower Heads After Treatment With Glyphosate (SFB216; 32 oz./acre) | Normal Sunflower Heads After Treatment With Glyphosate (SFB216; 64 oz./acre) | Normal Sunflower Heads After Treatment With Glyphosate (SFB216; 96 oz./acre) | Normal Sunflower Heads After Treatment With Glyphosate (SFB216; 128 oz./acre) | Vegetative tolerance to glyphosate spray (SFB193 and SFB216) |
| --- | --- | --- | --- | --- | --- | --- | --- | --- | --- | --- | --- | --- | --- | --- | --- | --- | --- |
| O=C(O)CNCP(=O)(O)O [Glyphosate] | 63/80 | 7 | 0% | No Tolerance | 0% | No Tolerance | 0% | 0% | 56% | 79% | 50% | 25% | 70% | 32% | 14% | 0% | excellent vegetative tolerance |
| NC[C@H]1O[C@H](O[C@H]2[C@H](O)[C@@H](O[C@H]3O[C@H](CO)[C@@H](O)[C@H](N)[C@H]3O)[C@H](N)C[C@@H]2N)[C@H](O)[C@@H](O)[C@@H]1O [Kanamycin] | 59/64 | 16 |  |  |  |  |  |  |  |  |  |  |  |  |  |  |  |
| NC[C@@H]1O[C@H](O[C@H]2[C@@H](O)[C@H](O[C@@H]3[C@@H](O)[C@H](N)C[C@H](N)[C@H]3O[C@H]3O[C@H](CO)[C@@H](O)[C@H](O)[C@H]3N)O[C@@H]2CO)[C@H](N)[C@@H](O)[C@@H]1O [Paromomycin] | 15/30 | 7 |  |  |  |  |  |  |  |  |  |  |  |  |  |  |  |
